Measured values reported in ChEMBL document CHEMBL1134659, “Amino acid/spermine conjugates: polyamine amides as potent spermidine uptake inhibitors” (J Med Chem, 2001).

Legend:
Type in all cases: functional, cell-based
MDA-MB-231 [1] = experiment: In vitro inhibition of MDA-MB-231 (Human breast caner) cell growth.
MDA-MB-231 [2] = experiment: In vitro inhibition of [3H]spermidine uptake in MDA-MB-231 (Human breast cancer) cells.
MDA-MB-231 [3] = experiment: Inhibition of [3H]spermidine transport into MDA-MB-231 (human breast cancer) cells.

Row | SMILES | EC50 (MDA-MB-231 [1]) [µM] | Ki (MDA-MB-231 [2]) [nM] | Ki (MDA-MB-231 [3]) [nM]
1 | NCCCNCCCCNCCCNC(=O)[C@@H](N)CCC(N)=O | > 300 | 177 | –
2 | NCCCNCCCCNCCCNC(=O)[C@@H](N)Cc1ccccc1 | > 100 | 443 | –
3 | CC(C)C[C@H](N)C(=O)NCCCNCCCCNCCCN | > 300 | 46 | –
4 | NCCCNCCCCNCCCNC(=O)[C@@H]1CCCN1 | 93 | 38 | –
5 | C[C@H](N)C(=O)NCCCNCCCCNCCCN | > 300 | 144 | –
6 | NCCCNCCCCNCCCNC(=O)C12CC3CC(CC(C3)C1)C2 | – | – | 672
7 | CC(C)[C@H](N)C(=O)NCCCNCCCCNCCCN | 16 | 84 | –
8 | CC(C)(C)[C@H](N)C(=O)NCCCNCCCCNCCCN | 11 | 127 | –
9 | CC(C)(N)C(=O)NCCCNCCCCNCCCN | 8 | 191 | –
10 | NCCCNCCCCNCCCNC(=O)[C@@H](N)CO | 26 | 55 | –
11 | NCCCNCCCCNCCCNC(=O)CC12CC3CC(CC(C3)C1)C2 | – | – | 256
12 | NCCCNCCCCNCCCNC(=O)[C@@H](N)CCCN | 3 | 47 | –
13 | CC(C)(C)OC(=O)NCCCNCCCCNCCCN | – | – | 86
14 | NCCCNCCCCNCCCNC(=O)[C@H](N)Cc1c[nH]c2ccccc12 | 205 | 63 | –
15 | CC(=O)NCCCNCCCNCCCN | – | – | > 1000
16 | CCCCCC(=O)NCCCNCCCCNCCCN | – | – | 284

Row | SMILES | EC50 (MDA-MB-231 [1]) [µM] | Ki (MDA-MB-231 [2]) [nM] | Ki (MDA-MB-231 [3]) [nM]
17 | NCCCNCCCCNCCCNC(=O)[C@@H](N)Cc1c[nH]c2ccccc12 | 15 | 119 | –
18 | NCCCNCCCCNCCCNC(=O)[C@@H](N)CC(N)=O | 98 | 95 | –
19 | CC(C)[C@@H](N)C(=O)NCCCNCCCCNCCCN | 9 | 58 | –
20 | NCCCNCCCCNCCCNC(=O)[C@@H](N)Cc1ccc(O)cc1 | 95 | 116 | –
21 | NCCCNCCCCNCCCNC(=O)[C@@H](N)CC1CCCCC1 | 8 | 196 | –
22 | C[C@H](O)[C@H](N)C(=O)NCCCNCCCCNCCCN | 6 | 213 | –
23 | NCCCNCCCCNCCCNC(=O)CN | > 100 | 87 | –
24 | CCC(C)[C@H](N)C(=O)NCCCNCCCCNCCCN (stereo partly drawn) | 9 | 150 | –
25 | NCCCNCCCCNCCCNC(=O)Cc1cccc2ccccc12 | – | – | 178
26 | CSCC[C@H](N)C(=O)NCCCNCCCCNCCCN | > 300 | 65 | –
27 | NCCCNCCCCNCCCNC(=O)CCN | > 300 | 65 | –
28 | N=C(N)NCCCCCCC(=O)NC(O)C(=O)NCCCCNCCCN (stereo not drawn) | – | – | 81
29 | NCCCNCCCCNCCC(=O)NCCCCCNC(=O)[C@H](CC(N)=O)NC(=O)Cc1ccc(O)cc1O [JORO SPIDER TOXIN 3] | – | – | 190
30 | NCCCCN [PUTRESCINE] | – | – | 1280
31 | NCCCCNCCCN [SPERMIDINE] | – | – | 113
32 | NCCCNCCCCNCCCN [SPERMINE] | – | – | 280
